In US20260116910A1, “POLYCYCLIC COMPOUNDS AND METHODS THEREOF” (HEPAITECH (BEIJING) BIOPHARMA TECHNOLOGY CO., LTD., priority 2021, published 2026):
Where two headings read alike, the source gives them in different places.

What was measured:
human FXR (NR1H4) = biological target: T1, human FXR (NR1H4) (Homo sapiens, UniProt Q96RI1); assay: Human FXR (NR1H4) agonist assessment, FXRE-NanoLuc reporter in HEK293T cells; assay type: cell-based; settings: for EC50: read-out: EC50
T1 sequence (Q96RI1 1-476 isoform Q96RI1-1): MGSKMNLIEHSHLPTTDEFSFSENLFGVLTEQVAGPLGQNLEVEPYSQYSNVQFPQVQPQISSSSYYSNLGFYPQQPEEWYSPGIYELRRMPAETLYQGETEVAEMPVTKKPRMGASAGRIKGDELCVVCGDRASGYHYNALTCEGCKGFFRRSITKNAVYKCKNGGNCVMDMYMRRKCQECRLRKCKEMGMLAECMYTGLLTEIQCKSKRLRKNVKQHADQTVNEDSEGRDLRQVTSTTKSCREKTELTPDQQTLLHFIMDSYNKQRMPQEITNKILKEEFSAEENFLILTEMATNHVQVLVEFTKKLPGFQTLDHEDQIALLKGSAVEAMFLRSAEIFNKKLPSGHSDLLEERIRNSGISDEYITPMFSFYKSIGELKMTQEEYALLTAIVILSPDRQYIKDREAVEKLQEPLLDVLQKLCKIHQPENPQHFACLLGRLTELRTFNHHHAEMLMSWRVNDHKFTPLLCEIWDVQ
Procedure: As those skilled in the art appreciate, various technologies are available for assessment of FXR activation in accordance with the present disclosure. […] Human FXR (NR1H4) agonist assessment (see, e.g., Yu et al. eLife 2019; 8: e48431): HEK293T cells stably expressing human FXR and containing FXR response element (FXRE)-NanoLuc reporter were cultured in DMEM medium supplemented with 10% FBS and 1% PS, at 37° C. in a humidified atmosphere with 5% CO2. Cells were detached by centrifuging (1000 rpm, 3 min). The pellet was re-suspended in medium, and cell density was adjusted to about 1×10^6 cells/mL. 100 μL suspension was seeded to each well of a white-walled, clear-bottom 96-well microplates (cell plate). Cells in microplates were cultured overnight.
In the following day, cells were grown to higher than 95% density in each well. Culture medium was replaced, and compounds were added to the wells. 0.01% DMSO (v/v) served as negative control. Plates were incubated at 37° C. in 5% CO2 for 24 hr.
In the following day, a 10 μL aliquot of cell culture medium was removed from each well and combined with 40 μL culture medium plus […] assay buffer (containing 20 mM of the luciferase substrate coelenterazine). After 5 min incubation, luminescence was measured using an EnVision plate reader (PerkinElmer).
In some embodiments, gradient diluted solutions of several concentrations were used to treat cells and corresponding responses were used to fit sigmoid function and to derive EC50 in Origin.

MRGPRX4 = MRGPRX4 (Homo sapiens, UniProt Q96LA9); assay: MRGPRX4 activation, Fluo-8 Ca2+ FLIPR assay in HEK293T cells stably expressing MRGPRX4; assay type: cell-based; settings: MRGPRX4 activation, Ca2+ fluorescence; no activation in tested range reported as III; read-out: Activity (EC50 μM)
Procedure: In some embodiments, cells were cultured in poly-D-Lys coated blacked walled, clear-bottom 96-well microplates. HEK293T cells stably expressing MRGPRX4 were cultured in DMEM medium supplemented with 10% FBS and 1% PS, at 37° C. in a humidified atmosphere with 5% CO2. Cells were detached by centrifuging (1000 rpm, 3 min). The pellet was re-suspended in medium, and cell density was adjusted to about 1×10^6 cells/mL. 100 μL suspension was seeded to each well of a microplates (cell plate). Cells in the microplates were cultured overnight. In the following day, cells were grown to higher than 95% density in each well.
Ca^2+ fluorescent dye loading: Fluo-8 AM (Screen Quest Fluo-8 AM Calcium Assay Kit, AAT Bioquest, cat. #: 21083) was diluted in HHBS buffer and adjusted to 2 μM (dye buffer). Medium in each well was changed into 50 μL dye buffer carefully. After incubation for 40-60 min under room temperature, the dye buffer was changed into 50 μL HHBS buffer.
The concentration of solution should be determined according to the protocol settings and experimental needs (e.g., Log[M]=−4, −5, −6, −7, −8, and −9). Prepare 2× serial dilution series of compounds (at least 75 μL per well).
A fluorescent signal baseline was measured using FLIPR®Tetra for 30 s. Then 50 μL of the chemical solution would be added to the cell plate. The fluorescent signal would be measured for another 150 s.
Activity of each compound was calculated by the fluorescence change (dF/F0). Curves were fitted to obtain EC50 values. In some embodiments, at least 3 repeats were performed to obtain the average values. For assessment of a compound, gradient diluted solutions of different concentrations were used to treat cells and corresponding responses were used to fit sigmoid function and to derive EC50 in Origin. In some embodiments, assessed concentrations were or included about 10^−4, 10^−4.5, 10^−5, 10^−5.5, 10^−6, 10^−6.5, 10^−7, 10^−8, and/or 10^−9 M; for example, in many instances, assessed concentrations included about 10^−5, 10^−6, 10^−7 and 10^−8 M. In some embodiments, assessed concentrations were about 10^−4, 10^−4.5, 10^−5, 10^−5.5, 10^−6, 10^−7, 10^−8, and 10^−9 M. In some embodiments, assessed concentrations were about 10^−4, 10^−5, 10^−6, 10^−7, 10^−8, and 10^−9 M. In some embodiments, assessed concentrations were about 10^−4, 10^−4.5, 10^−5, 10^−5.5, 10^−6, and 10^−7 M. In some embodiments, assessed concentrations were about 2000000, 1000000, 500000, 250000, 125000, 62500, 31250, 15625, 7813, 3906 nM. […] In some embodiments, assessed concentrations were about 30000, 10000, 3333, 1111, 370, 123, 41, 14, 4.6, 1.5 nM.

[1] = FXR activation, HEK293T FXRE-NanoLuc reporter, 24 hr

Chain of MRGPRX4 (Q96LA9 whole entry): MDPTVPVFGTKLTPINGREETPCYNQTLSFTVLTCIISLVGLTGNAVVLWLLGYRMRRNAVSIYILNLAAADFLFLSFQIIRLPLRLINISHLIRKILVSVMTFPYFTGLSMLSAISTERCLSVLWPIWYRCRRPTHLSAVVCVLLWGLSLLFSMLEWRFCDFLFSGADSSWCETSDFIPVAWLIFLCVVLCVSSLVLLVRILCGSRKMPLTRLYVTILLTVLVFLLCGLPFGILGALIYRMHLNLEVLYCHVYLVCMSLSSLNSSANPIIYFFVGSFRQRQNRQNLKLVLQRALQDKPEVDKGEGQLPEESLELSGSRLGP

| SMILES | Efficacy (maximum measured induction of NanoLuc, normalized to CDCA set as 100%) (human FXR (NR1H4); [1]) | EC50 (human FXR (NR1H4); [1]) [nM] | EC50 (MRGPRX4) [µM] | Efficacy (maximum measured induction of NanoLuc, normalized to CDCA set as 100%) (human FXR (NR1H4)) |
| --- | --- | --- | --- | --- |
| CC[C@H]1[C@@H](O)[C@@H]2[C@H](CC[C@]3(C)[C@@H]([C@H](C)CCC(=O)O)CC[C@@H]23)[C@@]2(C)CC[C@H](F)C[C@@H]12 [1-1] | C (100%<efficacy <=300%) | 1000 to 10000 | > 100 | – |
| CC[C@H]1[C@@H](O)[C@@H]2[C@H](CC[C@]3(C)[C@@H]([C@H](C)CCNC(=S)NS(=O)(=O)c4cccs4)CC[C@@H]23)[C@@]2(C)CCCC[C@@H]12 [7-3] | – | < 1000 | – | C (key: A: efficacy >400%; B: 300%<efficacy <=400%; C: 100%<efficacy <=300%; D: efficacy <=100%) |
| CC[C@H]1[C@@H](O)[C@@H]2[C@H](CC[C@]3(C)[C@@H]([C@H](C)CCNC(=O)C(=O)O)CC[C@@H]23)[C@@]2(C)CCCC[C@@H]12 [8-1] | B (300%<efficacy <=400%) | 1000 to 10000 | – | – |
| CC[C@H]1[C@@H](O)[C@@H]2[C@H](CC[C@]3(C)[C@@H]([C@H](C)CCN)CC[C@@H]23)[C@@]2(C)CCC(F)(F)C[C@@H]12 [11-1] | C (100%<efficacy <=300%) | > 10000 | – | – |
| CC[C@H]1[C@@H](O)[C@@H]2[C@H](CC[C@]3(C)[C@@H]([C@H](C)CCc4nnc(C(C)C)s4)CC[C@@H]23)[C@@]2(C)CCCC[C@@H]12 [15-1] | B (300%<efficacy <=400%) | 1000 to 10000 | – | – |
| CC[C@H]1[C@@H](O)[C@@H]2[C@H](CC[C@]3(C)[C@@H]([C@H](C)CCc4nnc(N)[nH]4)CC[C@@H]23)[C@@]2(C)CCCC[C@@H]12 [15-2] | C (100%<efficacy <=300%) | < 1000 | – | – |
| CC[C@H]1[C@@H](O)[C@@H]2[C@H](CC[C@]3(C)[C@@H]([C@H](C)CCc4nnc(NS(=O)(=O)c5ccc6c(c5)OCO6)[nH]4)CC[C@@H]23)[C@@]2(C)CCCC[C@@H]12 [15-3] | C (100%<efficacy <=300%) | 1000 to 10000 | – | – |
| CC[C@H]1[C@@H](O)[C@@H]2[C@H](CC[C@]3(C)[C@@H]([C@H](C)CCC(=O)Nc4nnn[nH]4)CC[C@@H]23)[C@@]2(C)CCCC[C@@H]12 [16-1] | – | 1000 to 10000 | – | B (key: A: efficacy >400%; B: 300%<efficacy <=400%; C: 100%<efficacy <=300%; D: efficacy <=100%) |
| CC[C@H]1[C@@H](O)[C@@H]2[C@H](CC[C@]3(C)[C@@H]([C@H](C)Cc4nnn[nH]4)CC[C@@H]23)[C@@]2(C)CCCC[C@@H]12 [16-2] | C (100%<efficacy <=300%) | < 1000 | – | – |
| CC[C@H]1[C@@H](O)[C@@H]2[C@H](CC[C@]3(C)[C@@H]([C@H](C)CCNC(=N)N)CC[C@@H]23)[C@@]2(C)CCCC[C@@H]12 [17-1] | A (efficacy >400%) | < 1000 | – | – |
| CC[C@H]1[C@@H](O)[C@@H]2[C@H](CC[C@]3(C)[C@@H]([C@H](C)CCNC(=N)NS(=O)(=O)c4cccs4)CC[C@@H]23)[C@@]2(C)CCCC[C@@H]12 [17-2] | B (300%<efficacy <=400%) | < 1000 | – | – |
| CC[C@H]1[C@@H](O)[C@@H]2[C@H](CC[C@]3(C)[C@@H]([C@H](C)CCOC(=O)NS(=O)(=O)c4ccc5c(c4)CCC(C)(C)O5)CC[C@@H]23)[C@@]2(C)CCCC[C@@H]12 [19-1] | B (300%<efficacy <=400%) | < 1000 | – | – |
| CC[C@H]1[C@@H](O)[C@@H]2[C@H](CC[C@]3(C)[C@@H]([C@H](C)CCOC(=O)NS(=O)(=O)c4ccc(N5CCCCC5)nc4)CC[C@@H]23)[C@@]2(C)CCCC[C@@H]12 [19-2] | B (300%<efficacy <=400%) | < 1000 | – | – |
| CC[C@H]1[C@@H](O)[C@@H]2[C@H](CC[C@]3(C)[C@@H]([C@H](C)CCOC(=O)NS(=O)(=O)c4ccc(C(C)(C)CF)cc4)CC[C@@H]23)[C@@]2(C)CCCC[C@@H]12 [19-3] | A (efficacy >400%) | < 1000 | – | – |
| C[C@H](CCNC(=O)NS(=O)(=O)c1ccc(C(C)(C)CF)cc1)[C@H]1CC[C@H]2[C@@H]3CC[C@@H]4CCCC[C@]4(C)[C@H]3CC[C@]12C [21-1] | – | 1000 to 10000 | – | B (key: A: efficacy >400%; B: 300%<efficacy <=400%; C: 100%<efficacy <=300%; D: efficacy <=100%) |
| C[C@H](CCCOC(=O)NS(=O)(=O)c1ccc(C(C)(C)CF)cc1)[C@H]1CC[C@H]2[C@@H]3CC[C@@H]4CCCC[C@]4(C)[C@H]3CC[C@]12C [22-1] | – | 1000 to 10000 | – | B (key: A: efficacy >400%; B: 300%<efficacy <=400%; C: 100%<efficacy <=300%; D: efficacy <=100%) |
| C[C@H](CNC(=O)NS(=O)(=O)c1ccc(C(C)(C)CF)cc1)[C@H]1CC[C@H]2[C@@H]3CC[C@@H]4CCCC[C@]4(C)[C@H]3CC[C@]12C [23-1] | B (300%<efficacy <=400%) | 1000 to 10000 | – | – |
| C[C@H](CCCCNC(=O)NS(=O)(=O)c1ccc(C(C)(C)CF)cc1)[C@H]1CC[C@H]2[C@@H]3CC[C@@H]4CCCC[C@]4(C)[C@H]3CC[C@]12C [24-1] | B (300%<efficacy <=400%) | 1000 to 10000 | – | – |
| C[C@H](CCC(=O)O)[C@H]1CC[C@H]2[C@@H]3CC[C@@H]4C[C@H](O)CC[C@]4(C)[C@H]3C[C@@H](O)[C@]12C [RC-4] | A (efficacy >400%) | < 1000 | – | – |
